Experimental data taken from PMC12209172, “Poly(ADP-ribose)polymerase 2 is zinc-dependent enzyme and nucleosome reorganizer” (Cellular and Molecular Life Sciences: CMLS, 2025).
Several values for one entry are separate records, joined by “and”; a condition that tells them apart may be missing. Identical values can stand only once.

How the values were obtained:
[1] = biological target: T1, WGR domain of PARP2 (Homo sapiens, UniProt Q9UGN5); test: Tryptophan fluorescence spectroscopy of the WGR domain titrated with divalent cations (one site binding fit); details: for fluorescence intensity (Fig 3d): listed as Zn
T1 construct: WGR domain of PARP2 (residues 77–220) into pET-15b-TEV expression vector; 6xHis (pET-15b-TEV) (N, cleaved yes); made in house; host or cells: Escherichia coli Rosetta2 (DE3) pLysS
T1 sequence (Q9UGN5 77-220): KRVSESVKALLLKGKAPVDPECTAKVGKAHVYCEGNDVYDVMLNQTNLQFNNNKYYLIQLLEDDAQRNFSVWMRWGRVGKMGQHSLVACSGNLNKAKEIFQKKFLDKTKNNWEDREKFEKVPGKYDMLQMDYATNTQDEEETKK
Procedure: (§1) Fluorescence spectra of Trp residues were measured in the 300–450 nm spectral range at the 270 nm excitation wavelengths using the Cary Eclipse spectrofluorometer (Varian/Agilent, USA).
Fluorescence of WGR domain was measured at 0.5 or 5 µM in a buffer containing 10 mM HEPES (pH 8.0), 150 mM NaCl and 0.73 or 7.3 µM EDTA, respectively. Solutions were complemented with ZnCl2 (0.2–308 µM) or MgCl2 (15–5000 µM), or CaCl2 (8–5000 µM) dissolved in a buffer containing 10 mM HEPES (pH 8.0), 150 mM NaCl. Intensity of the measured spectra was corrected for the concomitant dilution of the WGR domain. Integral intensities (Ifl.) of fluorescence spectra were averaged over three independent measurements (mean ± SEM) and used to plot the corresponding Ifl. vs. ion concentration graphs. Data were fitted with the one site binding equation:2 [drawing 2]
Where C is the concentration of divalent cations, Kd is a dissociation constant of the complex, Im and Ifl0 are maximal and initial values of Ifl., respectively.

[2] = biological target: T1, WGR domain of PARP2; test: Circular dichroism spectroscopy of the WGR domain (BeStSel secondary structure analysis); design: content of a-helix in the WGR domain / content of b-sheet in the WGR domain / content of turn in the WGR domain / content of random coil in the WGR domain: unit not given here
Procedure: (§2) CD spectra of proteins were recorded within the 190-250 nm spectral range with 0.2 nm step using Jasco-810 spectrophotometer (Jasco, Japan) and the quartz […]® cuvette of 0.1 mm thickness (Hellma, Germany. Secondary structure analysis was performed using BeStSel webserver. To improve the reliability of the analysis, the content of canonical secondary structures of various types was predicted for 3-6 independent measurements, and the values were averaged. The statistical significance of the secondary structure difference was determined using the multiple t-test.

[3] = biological target: T2, PARP2 (Mus musculus, UniProt O88554); test: Tryptophan fluorescence spectroscopy of PARP2 with Zn2+; format: binding; design: Recombinant mouse full-length PARP2 was obtained in the baculovirus expression system; made in house; host or cells: Sf9 insect cells (baculovirus); gift of Prof; O. Lavrik; details: PARP2 0.5 µM, Zn2+ 377 µM
Procedure: as §1
Fluorescence of PARP2 was measured at 0.5 µM in a buffer containing 7% glycerin, 33 µM HEPES (pH 8.0), 75 mM NaCl, 89 µM EDTA, 27 µM ZnCl2, 1.5 µM TCEP. A solution of PARP2 was complemented with ZnCl2 to 377 µM.

[4] = biological target: T2, PARP2; test: Circular dichroism spectroscopy of PARP2 (BeStSel secondary structure analysis); design: Recombinant mouse full-length PARP2 was obtained in the baculovirus expression system; made in house; host or cells: Sf9 insect cells (baculovirus); gift of Prof; O. Lavrik; details: 0.3 mM Zn2+, 0.7 mM Ca2+ or 0.7 mM Mg2+
Procedure: as §2

[5] = biological target: T2, PARP2; test: Western blot analysis of NAD+-dependent PARylation by PARP2 in PARP2-nucleosome complexes; format: biochemical; design: Recombinant mouse full-length PARP2 was obtained in the baculovirus expression system; made in house; host or cells: PARP2: Sf9 insect cells (baculovirus), gift of Prof; O. Lavrik; nucleosomes assembled in house; details: Mg2+ 5 mM or Zn2+ 0.3 mM; PARP2 100 nM, nucleosomes 3 nM, NAD+ 0-5 µM
Procedure: Probes were subjected to electrophoresis in 4–12% bis-Tris gradient gel in the NuPAGE™ MES SDS Running Buffer at 130 V. […] The membrane was incubated for 60 min in the PBS-T solution supplemented with the 5% skimmed milk. Then the membrane was incubated with mouse monoclonal antibodies 10 H followed by incubation with the secondary anti-mouse antibodies conjugated with horseradish peroxidase (Bio-Rad, Hercules, CA, USA). The washing procedure was carried out after each step of incubation. Immunodetection was performed using the Super Signal West Pico Chemiluminescent Substrate (Thermo Fisher Scientific, Waltham, MA, USA) for 3 min. The Western blot experiments were performed in three independent repetitions.

[6] = 0.5 mM ion, independent measurements

[Cl-].[Cl-].[Zn+2] [Zn2+, ZnCl2]
Zn2+ concentration at which changes in the fluorescence of Trp residues of the WGR domain were observed ([1]; Figure S4): 0.4 to 5 µM
Kd ([1]; Trp fluorescence, one site binding fit, 10 mM HEPES pH 8.0, 150 mM NaCl, residual EDTA present, read-out: dissociation constant of the divalent cation-WGR domain complex): 2 µM and ~2 µM
effect of ions on intensity of tryptophan fluorescence of the WGR domain ([1]; WGR domain 5 µM): considerably increased
fluorescence intensity (Fig 3d) ([1]; wavelength 330.000, 5.9 uM Zn): 64.607 and 70.927 and 88.925 and 69.072
fluorescence intensity (Fig 3d) ([1]; wavelength 330.000, 11.6 uM Zn): 118.714 and 102.531 and 101.352 and 109.279
fluorescence intensity (Fig 3d) ([1]; wavelength 330.000, 17.2 uM): 125.078 and 114.327 and 116.086 and 114.151
fluorescence intensity (Fig 3d) ([1]; wavelength 330.000, 22.1 uM): 125.812 and 115.097 and 117.722 and 114.227
fluorescence intensity (Fig 3d) ([1]; wavelength 330.000, 303 uM + 7 mM EDTA): 42.022 and 51.928 and 42.125 and 50.264
fluorescence intensity (Fig 3d) ([1]; wavelength 330.000, 308 uM): 125.859 and 119.818 and 119.168 and 117.804
fluorescence intensity (Fig 3d) ([1]; wavelength 331.070, 5.9 uM Zn): 65.518 and 73.717 and 91.313 and 71.214
fluorescence intensity (Fig 3d) ([1]; wavelength 331.070, 11.6 uM Zn): 121.141 and 105.018 and 103.680 and 111.886
fluorescence intensity (Fig 3d) ([1]; wavelength 331.070, 17.2 uM): 128.785 and 116.958 and 116.866 and 116.180
fluorescence intensity (Fig 3d) ([1]; wavelength 331.070, 22.1 uM): 127.402 and 115.749 and 117.457 and 117.342
fluorescence intensity (Fig 3d) ([1]; wavelength 331.070, 303 uM + 7 mM EDTA): 42.915 and 54.693 and 43.072 and 51.479
fluorescence intensity (Fig 3d) ([1]; wavelength 331.070, 308 uM): 129.366 and 122.539 and 123.005 and 119.729
fluorescence intensity (Fig 3d) ([1]; wavelength 332.000, 5.9 uM Zn): 66.418 and 75.386 and 92.296 and 72.347
fluorescence intensity (Fig 3d) ([1]; wavelength 332.000, 11.6 uM Zn): 123.485 and 106.394 and 106.147 and 113.513
fluorescence intensity (Fig 3d) ([1]; wavelength 332.000, 17.2 uM): 128.874 and 118.064 and 118.851 and 118.214
fluorescence intensity (Fig 3d) ([1]; wavelength 332.000, 22.1 uM): 131.124 and 117.614 and 119.985 and 119.070
fluorescence intensity (Fig 3d) ([1]; wavelength 332.000, 303 uM + 7 mM EDTA): 43.600 and 54.088 and 43.890 and 52.288
fluorescence intensity (Fig 3d) ([1]; wavelength 332.000, 308 uM): 130.593 and 122.360 and 123.201 and 121.123
fluorescence intensity (Fig 3d) ([1]; wavelength 333.070, 5.9 uM Zn): 68.103 and 76.819 and 93.790 and 71.930
fluorescence intensity (Fig 3d) ([1]; wavelength 333.070, 11.6 uM Zn): 125.333 and 108.991 and 107.827 and 116.743
fluorescence intensity (Fig 3d) ([1]; wavelength 333.070, 17.2 uM): 132.720 and 120.694 and 121.118 and 119.035
fluorescence intensity (Fig 3d) ([1]; wavelength 333.070, 22.1 uM): 132.619 and 121.520 and 120.252 and 122.459
fluorescence intensity (Fig 3d) ([1]; wavelength 333.070, 303 uM + 7 mM EDTA): 43.562 and 54.895 and 44.695 and 52.661
fluorescence intensity (Fig 3d) ([1]; wavelength 333.070, 308 uM): 133.279 and 127.119 and 125.798 and 122.486
fluorescence intensity (Fig 3d) ([1]; wavelength 334.000, 5.9 uM Zn): 68.621 and 78.226
fluorescence intensity (Fig 3d) ([1]; wavelength 334.000, 11.6 uM Zn): 126.789 and 111.115
effect of ions on the structure of the WGR domain (CD) [2]: significantly changes
content of b-sheet in the WGR domain [2, 6]: 26.6 and 28 and 25.5 and 34.1 and 29.7
content of random coil in the WGR domain [2, 6]: 48.2 and 46 and 53.4 and 46.2
content of turn in the WGR domain [2, 6]: 15.4 and 13.9 and 14.7 and 15.1 and 13.3
intensity of fluorescence spectrum of tryptophan residues of PARP2 after addition of ions [3]: increased
effect of ions on the CD spectrum / conformation of PARP2 [4]: small conformational changes
effect of ions on efficiency of PARP2-mediated PARylation [5]: decrease
